From PubChem BioAssay (NCI)
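1) Cells in 96-well plates. 2) Compound, 48 h, 5 concentrations. 3) Linear interpolation between surrounding doses. 4) Unreached endpoint = highest concentration. The concentration for 50% growth inhibition is given as GI50. TGI is the concentration that stops growth completely.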

Tests used:
Experiment in all cases: growth of human tumour cells (NCI), 48 h
COLO 205 colon = system: COLO 205 colon
IGROV1 ovarian = system: IGROV1 ovarian
K-562 leukemia = system: K-562 leukemia
OVCAR-8 ovarian = system: OVCAR-8 ovarian
RPMI-8226 leukemia = system: RPMI-8226 leukemia
SK-MEL-28 melanoma = system: SK-MEL-28 melanoma
SK-OV-3 ovarian = system: SK-OV-3 ovarian
SR leukemia = system: SR leukemia
UACC-62 melanoma = system: UACC-62 melanoma
UO-31 renal = system: UO-31 renal

SMILES | TGI (COLO 205 colon) | TGI (IGROV1 ovarian) | TGI (K-562 leukemia) | TGI (OVCAR-8 ovarian) | TGI (RPMI-8226 leukemia) | TGI (SK-MEL-28 melanoma) | TGI (SK-OV-3 ovarian) | TGI (SR leukemia) | TGI (UACC-62 melanoma) | TGI (UO-31 renal) | GI50 (COLO 205 colon) | GI50 (IGROV1 ovarian) | GI50 (K-562 leukemia) | GI50 (OVCAR-8 ovarian) | GI50 (RPMI-8226 leukemia) | GI50 (SK-MEL-28 melanoma) | GI50 (SK-OV-3 ovarian) | GI50 (SR leukemia) | GI50 (UACC-62 melanoma) | GI50 (UO-31 renal)
O=C1CCCc2c(O)ccc(O)c21 | > 100 µM | > 100 µM | > 100 µM | > 100 µM | > 100 µM | > 100 µM | > 100 µM | 91.2 µM | > 100 µM | > 100 µM |  |  |  |  |  |  |  |  |  | 
Cc1ccc(Nc2ccnc(Nc3cccc(C(N)=O)c3)n2)cc1O | > 20.6 µM | 15.1 µM | > 25 µM | > 25 µM | > 25 µM | > 25 µM | 12.1 µM | > 25 µM | > 25 µM | 11.9 µM | 10.1 µM | 5.37 µM | 1.34 µM | 6.51 µM | > 25 µM | 11.2 µM | 1.96 µM | 11.3 µM | 7.08 µM | 0.846 µM
CC(C)=CCC[C@](C)(O)[C@H]1CC[C@]2(C)[C@@H]1CC[C@@H]1[C@@]3(C)CC[C@H](OC(=O)CCC(=O)O)C(C)(C)[C@@H]3CC[C@]12C | 95.3 µM | 72.7 µM | > 100 µM | > 100 µM | 52.9 µM | 34.8 µM | > 100 µM | 56.5 µM | 32.5 µM | 28 µM | 27.4 µM | 18.5 µM | 23.8 µM | 35.5 µM | 7.65 µM | 16.9 µM | 47.6 µM | 19.4 µM | 15 µM | 13.7 µM
C/C(=N\n1c(N)c(C#N)c(-c2ccc(Cl)cc2)c(C#N)c1=O)c1cccnc1 | > 100 µM | > 100 µM | > 100 µM | > 100 µM | > 100 µM | > 100 µM | > 100 µM | > 100 µM | > 100 µM | > 100 µM | > 100 µM | > 100 µM | > 100 µM | > 100 µM | > 100 µM | > 100 µM | > 100 µM | > 100 µM | > 100 µM | > 100 µM
COCCOC(=O)CCn1cc(F)c(=O)[nH]c1=O | > 150 µg/mL | > 150 µg/mL | > 150 µg/mL | > 150 µg/mL | > 150 µg/mL | > 150 µg/mL | > 150 µg/mL | > 150 µg/mL | > 150 µg/mL | > 150 µg/mL | 4.75 µg/mL | 7.36 µg/mL | 21.3 µg/mL | 32 µg/mL | 13.8 µg/mL | 31.7 µg/mL | 37.1 µg/mL | 2.97 µg/mL | 11 µg/mL | 1.82 µg/mL
CC(Cl)CC(=O)Nc1ccc2c(c1)oc(=O)c1cc(NC(=O)CC(C)Cl)ccc12 (stereo not drawn) | > 100 µM | 23.1 µM | 33.6 µM | 28.8 µM | 23.4 µM | 34.2 µM | 76.7 µM | 20.7 µM | 49.9 µM | 69.4 µM | 14.4 µM | 1.73 µM | 13.8 µM | 10.4 µM | 1.46 µM | 16.4 µM | 15.6 µM | 3.42 µM | 15.1 µM | 13.3 µM
O=C1CCC(c2ccccc2)(c2ccccc2)CC1 | 89.9 µM | > 100 µM | > 100 µM | > 100 µM | > 100 µM | > 100 µM | > 100 µM | > 100 µM | > 100 µM | > 100 µM |  |  |  |  |  |  |  |  |  | 
CCNC1=CC(=O)c2ncccc2C1=O | 3.3 µM | 24.5 µM | 12.5 µM | 14.2 µM | 29.6 µM | 3.52 µM | 19.8 µM | 11 µM | 2.3 µM | 7.72 µM | 1.63 µM | 7.91 µM | 2.84 µM | 3.04 µM | 7.08 µM | 1.71 µM | 6.92 µM | 3.71 µM | 1.06 µM | 1.76 µM
COc1cc(C(=O)c2c(-c3ccccc3)oc3ccccc23)cc(OC)c1O | 43.3 µM | 18.7 µM | 44.5 µM | 83.9 µM | 12.9 µM | 25.1 µM | 52.1 µM | 23.9 µM | 16 µM | 19.4 µM | 18.9 µM | 2.6 µM | 0.4 µM | 4.8 µM | 1.83 µM | 10.4 µM | 6.24 µM | 0.377 µM | 0.975 µM | 3.14 µM
COc1ccc2c3c([nH]c2c1)[C@H]1C[C@H]2[C@H](C[C@@H](O)[C@H](OC)[C@H]2C(=O)O)CN1CC3 | > 100 µM | > 100 µM | > 100 µM | > 100 µM | > 100 µM | > 100 µM | > 100 µM | > 100 µM | > 100 µM | > 100 µM |  |  |  |  |  |  |  |  |  | 
CC1=CC(=O)c2[nH]c3ccccc3c2C1=O | 7.55 µM | 17.1 µM | 14 µM | 7.45 µM | 14.7 µM | 7.98 µM | > 25 µM | 16.7 µM | 7.67 µM | 7.4 µM | 4.12 µM | 6.63 µM | 5.56 µM |  |  | 4.47 µM | 21.1 µM | 5.71 µM | 4.21 µM | 4 µM
N#CC(/C(=N\NC(N)=S)C(=O)NC1C2CC3CC(C2)CC1C3)c1ccc(Cl)cc1 (stereo not drawn) | > 100 µM | > 100 µM | > 100 µM | > 100 µM | > 100 µM | > 100 µM | > 100 µM | > 100 µM | > 100 µM | > 100 µM |  |  |  |  |  |  |  |  |  | 
CC(C)S(=O)(=O)n1c(N)nc2ccc(/C(=N/O)c3ccccc3)cc21 | 33.5 µM | 48 µM | > 100 µM | > 100 µM | 31.8 µM | > 100 µM | 83 µM | 27.2 µM | 81.8 µM | 47 µM |  |  |  |  |  |  |  |  |  | 
C/C(=N\N=C(N)N)c1sc(-c2nc(C)c(/C(C)=N/N=C(N)N)s2)nc1C | > 90.6 µM | > 100 µM | > 100 µM | > 100 µM | > 100 µM | > 100 µM | > 100 µM | > 66.4 µM | > 100 µM | > 100 µM |  |  |  |  |  |  |  |  |  | 
CCCCCCCCSC(SCCCCCCCC)=C1C(=O)N(c2ccccc2)N=C1C | 46.5 µM | > 100 µM | 84.6 µM | > 100 µM | 61.9 µM | > 100 µM | > 100 µM | 34.6 µM | > 100 µM | > 100 µM |  |  |  |  |  |  |  |  |  | 
